# Target: CB1 receptor (Homo sapiens, UniProt P21554)
# Assay: CB1 cAMP Antagonist Assay (LANCE Ultra cAMP kit)
# Assay type: cell-based
# Conditions: Flp-In CHO cells stably expressing the CB1 receptor; forskolin and CP55940 agonist at EC90; cAMP FRET readout
# Description: CB1 cAMP Antagonist Assay
# LANCE Ultra cAMP kit (Perkin Elmer) was used to quantitate the amount of 3′,5′-cyclic adenosine monophosphate (cAMP) produced in Flp-In CHO (Invitrogen) cells stably expressing the CB1 receptor.
# Forskolin was initially titrated to determine the response of the cells. The EC90 of forskolin was used for compound testing. CP55940 was titrated and used with EC90 of forskolin to determine the level of agonist stimulation. EC90 of the agonist was used for subsequent compound testing.
# Forskolin (Sigma), CP55940 (Cayman Chemicals), and AM251 (MCE) were diluted in 100% DMSO, starting at 100 mM, 1 mM, and 1 mM respectively, in 3-fold serial dilutions. Test compounds were diluted in 100% DMSO starting from 10 mM, 3-fold dilutions. The cAMP assay buffer contains 1x Hank’s Buffered Saline Solution with Ca^2+ and Mg^2+ (Invitrogen), 5.3 mM HEPES (Invitrogen), 0.05% BSA, 0.5 mM IBMX (Sigma).
# For all assays, cells were harvested, counted, and diluted in cAMP assay buffer to 1× 10^5 cells/mL. Only cells with viability >85% were used for the assay. Cells were seeded at 1000 cells/well in 384-well plates and 10 nL/well AM251 or test compound was added and incubated at 37° C. for 10 min. […] To detect the amount of cAMP produced, 5 µL of a 100x diluted stock of Eu-cAMP tracer and 5 µL of 200x diluted stock of Ulight-anti-cAMP were added to each well, and the plate incubated at 25° C. for 15 min. The FRET signal was read using an EnVision microplate reader (λex=320 nm, λem=615 nm and 665 nm).
# The IC50 is determined by fitting the percentage of inhibition as a function of compound concentrations with the Hill equation, using a 4-parameter fit in either XLfit or GraphPad Prism.
# CB1 receptor, sequence (P21554 whole entry): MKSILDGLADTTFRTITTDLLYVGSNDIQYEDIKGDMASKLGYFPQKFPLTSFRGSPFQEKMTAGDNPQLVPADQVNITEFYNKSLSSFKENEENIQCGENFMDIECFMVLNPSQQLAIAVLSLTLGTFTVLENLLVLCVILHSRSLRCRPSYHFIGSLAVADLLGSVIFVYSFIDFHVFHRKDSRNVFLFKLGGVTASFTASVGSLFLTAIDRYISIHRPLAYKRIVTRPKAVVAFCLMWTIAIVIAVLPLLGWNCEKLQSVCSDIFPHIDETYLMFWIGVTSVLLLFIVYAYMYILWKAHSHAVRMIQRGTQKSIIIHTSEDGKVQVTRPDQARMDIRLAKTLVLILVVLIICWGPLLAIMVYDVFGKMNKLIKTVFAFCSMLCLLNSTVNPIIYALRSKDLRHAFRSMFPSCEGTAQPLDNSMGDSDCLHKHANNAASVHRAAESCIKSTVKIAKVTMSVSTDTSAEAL
row,IC50,SMILES
1,> 5000 nM,C[C@H](C(N)=O)n1c(N2C[C@@H](c3ccccc3)C(c3ccc(Cl)cc3)=N2)nn(Cc2ccc(CN3CCOCC3)cc2)c1=O [Compound 164]
2,> 5000 nM,Cn1c(N2CC(c3ccccc3)C(c3ccc(Cl)cc3)=N2)nn(Cc2cccc(C(=O)O)c2)c1=O (stereo not shown) [Compound 186]
3,100 to 1000 nM,"C[C@H](C(=O)NCCO)n1c(N2C[C@@H](c3ccccc3)C(c3ccc(Cl)cc3)=N2)nn(Cc2ccc(Cl)cc2)c1=O [Compound 191, (2R)-2-[3-[(4R)-3-(4-chlorophenyl)-4-phenyl-4,5-dihydropyrazol-1-yl]-1-[(4-chlorophenyl)methyl]-5-oxo-1,2,4-triazol-4-yl]-N-(2-hydroxyethyl)propanamide]"
4,< 100 nM,Cn1c(N2CC(c3ccccc3)C(c3ccc(Cl)cc3)=N2)nn(Cc2cccc(C#N)c2)c1=O (stereo not shown) [Compound 170]
5,> 5000 nM,CN1CCN(Cc2ccc(Cn3nc(N4C[C@@H](c5ccccc5)C(c5ccc(Cl)cc5)=N4)n(C)c3=O)cc2)CC1 [Compound 135]
6,100 to 1000 nM,"Cn1c(N2CC(c3ccccc3)C(c3ccc(Cl)cc3)=N2)nn(Cc2ccc(C(N)=O)cc2)c1=O (stereo not shown) [Compound 192, 4-([3-[3-(4-chlorophenyl)-4-phenyl-4,5-dihydropyrazol-1-yl]-4-methyl-5-oxo-1,2,4-triazol-1-yl]methyl)benzamide]"
7,< 100 nM,COC(=O)c1ccc(Cn2nc(N3CC(c4ccccc4)C(c4ccc(Cl)cc4)=N3)n(C)c2=O)cc1 (stereo not shown) [Compound 168]
8,> 5000 nM,Cn1c(N2C[C@@H](c3ccccc3)C(c3ccc(Cl)cc3)=N2)nn(-c2ccc(CN3CCOCC3)cc2)c1=O [Compound 146]
9,> 5000 nM,C[C@H](C(N)=O)n1c(N2C[C@@H](c3ccccc3)C(c3ccc(Cl)cc3)=N2)nn(Cc2ccc(Cl)cc2)c1=O [Compound 180]
10,100 to 1000 nM,COC(=O)c1cccc(Cn2nc(N3CC(c4ccccc4)C(c4ccc(Cl)cc4)=N3)n(C)c2=O)c1 (stereo not shown) [Compound 189]
11,> 5000 nM,Cn1c(N2C[C@@H](c3ccccc3)C(c3ccc(Cl)cc3)=N2)nn(CCc2ccc(C(N)=O)cc2)c1=O [Compound 212]
12,< 100 nM,Cc1ccc(Cn2nc(N3C[C@H](c4ccccc4)C(c4ccc(Cl)cc4)=N3)n(C)c2=O)cc1 [Compound 163]
13,100 to 1000 nM,"Cn1c(N2C[C@H](c3ccccc3)C(c3ccc(Cl)cc3)=N2)nn(CCc2ccc(C(N)=O)cc2)c1=O [Compound 202, 4-(2-[3-[(4S)-3-(4-chlorophenyl)-4-phenyl-4,5-dihydropyrazol-1-yl]-4-methyl-5-oxo-1,2,4-triazol-1-yl]ethyl)benzamide]"
14,100 to 1000 nM,"Cn1c(N2C[C@H](c3ccccc3)C(c3ccc(Cl)cc3)=N2)nn(Cc2ccc(CN3CCOCC3)cc2)c1=O [Compound 136, 3-[(4S)-3-(4-chlorophenyl)-4-phenyl-4,5-dihydro-1H-pyrazol-1-yl]-4-methyl-1-([4-[(morpholin-4-yl)methyl]phenyl]methyl)-4,5-dihydro-1H-1,2,4-triazol-5-one]"
15,100 to 1000 nM,"NC(=O)Cn1c(N2C[C@H](c3ccccc3)C(c3ccc(Cl)cc3)=N2)nn(Cc2ccc(CN3CCOCC3)cc2)c1=O [Compound 145, 2-[3-[(4S)-3-(4-chlorophenyl)-4-phenyl-4,5-dihydro-1H-pyrazol-1-yl]-1-([4-[(morpholin-4-yl)methyl]phenyl]methyl)-5-oxo-4,5-dihydro-1H-1,2,4-triazol-4-yl]acetamide]"

# Further lines, the compound ahead of its results:
row,SMILES,IC50
1,"CCOC(=O)Cn1c(N2C[C@H](c3ccccc3)C(c3ccc(Cl)cc3)=N2)nn(-c2ccc(Cl)cc2)c1=O [Compound 104, ethyl 2-[1-(4-chlorophenyl)-3-[(4S)-3-(4-chlorophenyl)-4-phenyl-4,5-dihydro-1H-pyrazol-1-yl]-5-oxo-4,5-dihydro-1H-1 ,2,4-triazol-4-yl]acetate]",< 100 nM
2,Cn1c(N2CC(c3ccccc3)C(c3ccc(Cl)cc3)=N2)nn(Cc2ccc(C#N)cc2)c1=O (stereo not shown) [Compound 160],< 100 nM
3,"Cn1c(N2C[C@H](c3ccccc3)C(c3ccc(Cl)cc3)=N2)n[nH]c1=O [Compound 172, 5-[(4S)-3-(4-chlorophenyl)-4-phenyl-4,5-dihydropyrazol-1-yl]-4-methyl-2H-1,2,4-triazol-3-one]",1000 to 5000 nM
4,O=C(O)CCn1c(N2C[C@]3(CCc4ccccc43)C(c3ccc(Cl)cc3)=N2)nn(Cc2ccc(Cl)cc2)c1=O [Compound 127],> 5000 nM
5,Cn1nc(N2C[C@@]3(CCc4ccccc43)C(c3ccc(Cl)cc3)=N2)n(C)c1=O [Compound 141],1000 to 5000 nM
6,"NC(=O)CCn1c(N2C[C@]3(CCc4ccccc43)C(c3ccc(Cl)cc3)=N2)nn(-c2ccc(Cl)cc2)c1=O [Compound 126, 3-[1-(4-chlorophenyl)-3-[(1R)-3-(4-chlorophenyl)-1,2,3,5-tetrahydrospiro[indene-1,4-pyrazol]-1-yl]-5-oxo-4,5-dihydro-1H-1,2,4-triazol-4-yl]propanamide]",100 to 1000 nM
7,COCCn1c(N2C[C@]3(CCc4ccccc43)C(c3ccc(Cl)cc3)=N2)nn(-c2ccc(Cl)cc2)c1=O [Compound 110],> 5000 nM
8,"NC(=O)Cn1c(N2C[C@@]3(CCc4ccccc43)C(c3ccc(Cl)cc3)=N2)nn(Cc2ccc(Cl)cc2)c1=O [Compound 125, 2-[3-[(1S)-3-(4-chlorophenyl)-1,2,3,5-tetrahydrospiro[indene-1,4-pyrazol]-1-yl]-1-[(4-chlorophenyl)methyl]-5-oxo-4,5-dihydro-1H-1,2,4-triazol-4-yl]acetamide]",1000 to 5000 nM
9,C[C@H](C(N)=O)n1c(N2C[C@H](c3ccccc3)C(c3ccc(Cl)cc3)=N2)nn(Cc2ccc(Cl)cn2)c1=O [Compound 205],< 100 nM
10,"O=c1[nH]nc(N2C[C@H](c3ccccc3)C(c3ccc(Cl)cc3)=N2)[nH]1 [Compound 211, 5-[(4S)-3-(4-chlorophenyl)-4-phenyl-4,5-dihydropyrazol-1-yl]-2,4-dihydro-1,2,4-triazol-3-one]",> 5000 nM
11,C[C@H](C(N)=O)n1c(N2C[C@@H](c3ccccc3)C(c3ccc(Cl)cc3)=N2)n[nH]c1=O [Compound 199],> 5000 nM
12,O=C(O)CCn1c(N2C[C@@]3(CCc4ccccc43)C(c3ccc(Cl)cc3)=N2)nn(Cc2ccc(Cl)cc2)c1=O [Compound 131],> 5000 nM
13,"Cn1nc(N2CC(c3ccccc3)C(c3ccc(Cl)cc3)=N2)n(Cc2ccccc2)c1=O (stereo not shown) [Compound 193, 4-benzyl-5-[3-(4-chlorophenyl)-4-phenyl-4,5-dihydropyrazol-1-yl]-2-methyl-1,2,4-triazol-3-one]",100 to 1000 nM
14,Cn1c(N2CC(c3ccccc3)C(c3ccc(Cl)cc3)=N2)nn(Cc2ccc(C(=O)NCCO)cc2)c1=O (stereo not shown) [Compound 173],1000 to 5000 nM
15,"NC(=O)Cn1c(N2C[C@]3(CCc4ccccc43)C(c3ccc(Cl)cc3)=N2)nn(Cc2ccc(Cl)cc2)c1=O [Compound 122, 2-[3-[(1R)-3-(4-chlorophenyl)-1,2,3,5-tetrahydrospiro[indene-1,4-pyrazol]-1-yl]-1-[(4-chlorophenyl)methyl]-5-oxo-4,5-dihydro-1H-1,2,4-triazol-4-yl]acetamide]",100 to 1000 nM
16,"COCCn1c(N2CC3(CCc4ccccc43)C(c3ccc(Cl)cc3)=N2)nn(Cc2ccc(Cl)cc2)c1=O (stereo in doubt) [Compound 123, 3-[(1S)-3-(4-chlorophenyl)-1,2,3,5-tetrahydrospiro[indene-1,4-pyrazol]-1-yl]-1-[(4-chlorophenyl)methyl]-4-(2-methoxyethyl)-4,5-dihydro-1H-1,2,4-triazol-5-one]",100 to 1000 nM
17,C[C@H](c1ccc(Cl)cc1)n1nc(N2C[C@H](c3ccccc3)C(c3ccc(Cl)cc3)=N2)n(CC(N)=O)c1=O [Compound 154],< 100 nM
18,O=c1n(-c2ccc(Cl)cc2)nc(N2C[C@@]3(CCc4ccccc43)C(c3ccc(Cl)cc3)=N2)n1CCO [Compound 112],> 5000 nM
19,"NC(=O)Cn1c(N2C[C@H](c3ccccc3)C(c3ccc(Cl)cc3)=N2)nn(-c2ccc(Cl)cc2)c1=O [Compound 111, (S)-2-(1-(4-chlorophenyl)-3-(3-(4-chlorophenyl)-4-phenyl-4,5-dihydro-1H-pyrazol-1-yl)-5-oxo-1,5-dihydro-4H-1,2,4-triazol-4-yl)acetamide]",< 100 nM
20,Cn1c(N2C[C@@]3(CCc4ccccc43)C(c3ccc(Cl)cc3)=N2)nn(Cc2ccc(Cl)cc2)c1=O [Compound 113],1000 to 5000 nM
21,COCCn1c(N2C[C@@]3(CCc4ccccc43)C(c3ccc(Cl)cc3)=N2)nn(-c2ccc(Cl)cc2)c1=O [Compound 117],> 5000 nM
22,C[C@@H](c1ccc(Cl)cc1)n1nc(N2C[C@H](c3ccccc3)C(c3ccc(Cl)cc3)=N2)n(CC(N)=O)c1=O [Compound 153],< 100 nM
23,O=C(O)CCn1c(N2C[C@@]3(CCc4ccccc43)C(c3ccc(Cl)cc3)=N2)nn(-c2ccc(Cl)cc2)c1=O [Compound 130],> 5000 nM
24,Cn1c(N2C[C@@H](c3ccccc3)C(c3ccc(Cl)cc3)=N2)n[nH]c1=O [Compound 181],> 5000 nM
25,Cn1c(N2C[C@@H](c3ccccc3)C(c3ccc(Cl)cc3)=N2)nn(CCc2ccc(C(=O)NCCO)cc2)c1=O [Compound 210],> 5000 nM

# From patent publication US20230192657A1, “1,2,4-TRIAZOLINONE CB1 INHIBITORS” (Goldfinch Bio, Inc., priority 2020, published 2023)
